Entries after “also recorded” stand apart in the source; their conditions may differ.
Legend:
Proteus Mirabilis = assay: Promoting wave test (bio-wave model); assay type: cell-based
Source text: 1.1 Samples: Pure Compound of Formula (I)
• Strain: Proteus Mirabilis (which should comply with the following biological reaction characteristics: dynamics (+), urease (+), lactose (−), glucose (+), H2S (−), phenylalanine deaminase (+). • Culture medium: modified LB culture medium (the component of the composition are: 1% trytones, 0.5% yeast extract, 1% sodium chloride, 0.1% glucose, 0.002% TTC, and pH=7.2˜7.4). 1.3 Experimental Method:
The experiment adopted a bio-wave model for studying the promoting wave function of the compound of formula (I).

[1] = in vivo
Source text: • 1. Acute toxicity test: including tests of administrating medicine orally, intravenous injection and maximum limit amount for administration; • 2. Ames test; • 3. Micronucleus test of bone marrow cell of small mouse; • 4. Abnormal sexual test for the sperm of mouse; • 5. Abnormal aberrance test for the chromosin of mouse's testis; • 6. Chronic lethal test; • 7. Subchronic toxicity (feed for 90 days) test; • 8. Traditional deformity-inducing test;

Pseudomonas aeruginosa = assay: Tests of bacterial colonization resistance; assay type: in vivo; conditions: intestinal mucosa of test animals, different concentrations
Experimental: Pseudomonas aeruginosa is used in the tests of bacterial colonization resistance of the compound of formula (I). The intestinal mucosa of test animals that were pre-administrated with Pseudomonas aeruginosus and were treated by the compound of formula (I) with different concentrations was detected by in situ colonization, qualitative and quantitative methods.

[2] = test system: patients with symptoms of microecological imbalance; assay: Clinical trial, effects for regulating mucocutaneous microecology; assay type: in vivo, human
Source text: (§1) 56 patients with symptoms of microecological imbalance, including 20 patients with oral complaints, such as halitosis, oral infections caused by clinically unknown pathogenic bacteria, 20 patients with subaxilary complaints, such as slimy sensation or bromidrosis, and 16 patients with low […] of gynecological genitourinary tract caused by unknown source of infectious pathogen, were separately treated by mouthwash or topical sprinkle of 1% N-acetyl-D-glucosamine aqueous solution twice daily for 7 days. […] Observation of effects of N-acetyl-D-glucosamine for regulating mucocutaneous microecology

[3] = test system: flora of mucocutaneous microecology; assay: Clinical trial, detection of flora of mucocutaneous microecology (detection rates of various bacteria); assay type: in vivo, human
Source text: as §1, with “Detection results” for “Observation”, “flora” for “effects”, “of” for “of N-acetyl-D-glucosamine for regulating”, “microecology regulated by N-acetyl-D-glucosamine (detection rates of various bacteria)” for “microecology”

[4] = Microecological imbalance of gynecological genitourinary tract, 16 cases
[5] = Subaxillary slimy sensation, 10 cases

## CC(=O)N[C@@H]1[C@@H](O)[C@H](O)[C@@H](CO)O[C@H]1O [N-acetyl-D-glucosamine]
Proteus Mirabilis
  promoting wave function: many fine waves on each ring emerged; also recorded: has promoting function to bio-waves
[1]
  acute test dosage relative to the injection dosage for human being: 300 times
  dosage at which the acute toxicosis reaction had not appeared: more than 2 g/kg
[1]; 4 weeks
  maximum dosage with no intoxication reaction: 1 g/kg
Pseudomonas aeruginosa
  colonization resistance against Pseudomonas aeruginosa: increased with the increase of its concentration
[2]; 56 patients, 1% aqueous solution mouthwash or topical sprinkle twice daily for 7 days
  total effective rate: 87.8%
[2]; Bromidrosis, 10 cases
  Cured: 5
  Effective: 3
  Effective rate (%): 80%
  Ineffective: 2
[2]; [4]
  Cured: 7
  Effective: 6
  Effective rate (%): 81.3%
  Ineffective: 3
[2]; Oral compliant, 20 cases
  Cured: 8
  Effective: 10
  Effective rate (%): 90%
  Ineffective: 2
[2]; [5]
  Cured: 7
  Effective: 3
  Effective rate (%): 100%
  Ineffective: 0
[3]; Buccal cavity (salivary bacteria), after regulation, before regulation 12
  detection rate of helicoids: helicoids (0)
[3]; Buccal cavity (salivary bacteria), after regulation, before regulation 18
  detection rate of corynebacterium diphtheroides: diphtheroides (8),
[3]; Buccal cavity (salivary bacteria), after regulation, before regulation 23
  detection rate of Streptococcus mutans: (7), streptococcus
[3]; Buccal cavity (salivary bacteria), after regulation, before regulation 40
  detection rate of streptococcus salivarius: salivarius (90),
[3]; Buccal cavity (salivary bacteria), after regulation, before regulation 50
  detection rate of Neisser's coccus: (95), corynebacterium
[3]; Buccal cavity (salivary bacteria), after regulation, before regulation 60
  detection rate of bacteroides: bacteroides (30),
[3]; Skin of axillary fossa, after regulation, before regulation 18
  detection rate of aerobic coryneform bacteria: bacteria (12), pityro-
[3]; Skin of axillary fossa, after regulation, before regulation 20
  detection rate of Staphylococci: Staphylococci (36),
[3]; Skin of axillary fossa, after regulation, before regulation 24
  detection rate of pityrosporum furfur: sporum furfur (15),
[3]; Skin of axillary fossa, after regulation, before regulation 40
  detection rate of bacillus polymyxa odour: odour (9)
[3]; Woman's genitourinary tract, after regulation, before regulation 18
  detection rate of bacillus acidi lactici: acidi lactici (60),
[3]; Woman's genitourinary tract, after regulation, before regulation 29
  detection rate of bacillus coli: bacillus coli (10)
[3]; Woman's genitourinary tract, after regulation, before regulation 38
  detection rate of Staphylococcus epidermidis: midis (35), bacillus
[3]; buccal cavity, skin of axillary fossa and woman's genitourinary tract
  change of flora after use: autochthonous flora increased and allochthonous flora decreased

— patent US20070197470A1, “Use of n-acetyl-d-aminogylcosamine in preparation of drugs for modulating microorganisms on mucous membrane” (priority 2003, published 2007)
